# Experimental data published in PMC8350397, “GSK137, a potent small-molecule BCL6 inhibitor with in vivo activity, suppresses antibody responses in mice” (The Journal of Biological Chemistry, 2021).
# Experiments:
# BCL6 BTB-POZ domain = conditions: read-out: potency on BCL6 BTB-POZ domain; cited from earlier work
# [1] = Chromatographic log D / property forecast index; assay type: physicochemical
# splenic germinal centers = assay: Spleen immunohistochemistry of germinal centers; assay type: in vivo, mouse
# Method: Immunohistochemistry of GCs in spleens was obtained from a pilot experiment to test immunization conditions carried out at the University of Leicester using groups of C57BL/6J mice. One group of mice was immunized with TNP-KLH (100 μg) followed by treatment with GSK137 15 mg/kg by oral gavage three times per day from day -1 to day +12 (n = 3), whereas the other was treated with vehicle by oral gavage three times per day from day -1 to day +12 following immunization (n = 6). Formalin-fixed paraffin-embedded sections of mouse spleen were stained with antimouse B220/CD45R (BD Biosciences; catalog no. 550286), […] (Abcam; ab32064), and anti-Ki67 (Abcam; ab15580) antibodies using Opal Multiplex IHC detection kit (NEL810001KT; Akoya Biosciences). The sections were counterstained with 4',6-diamidino-2-phenylindole for 5 min and mounted with ProLong Diamond Antifade mountant (Invitrogen; P36970). Images were obtained using Vectra Polaris multicolor fluorescence scanner (Akoya Biosciences). Quantification was carried out by inForm image analysis software (Akoya Biosciences). Normality tests were carried out for the B220^+Ki67^+ and […]^+ data. Both datasets were normally distributed, and accordingly, statistical significance was determined by unpaired t test.
# [2] = molecular target: human serum albumin (HSA) (Homo sapiens, UniProt P02768); assay: Binding to human serum albumin; assay type: in vitro ADME
# human serum albumin (HSA), sequence (P02768 25-609): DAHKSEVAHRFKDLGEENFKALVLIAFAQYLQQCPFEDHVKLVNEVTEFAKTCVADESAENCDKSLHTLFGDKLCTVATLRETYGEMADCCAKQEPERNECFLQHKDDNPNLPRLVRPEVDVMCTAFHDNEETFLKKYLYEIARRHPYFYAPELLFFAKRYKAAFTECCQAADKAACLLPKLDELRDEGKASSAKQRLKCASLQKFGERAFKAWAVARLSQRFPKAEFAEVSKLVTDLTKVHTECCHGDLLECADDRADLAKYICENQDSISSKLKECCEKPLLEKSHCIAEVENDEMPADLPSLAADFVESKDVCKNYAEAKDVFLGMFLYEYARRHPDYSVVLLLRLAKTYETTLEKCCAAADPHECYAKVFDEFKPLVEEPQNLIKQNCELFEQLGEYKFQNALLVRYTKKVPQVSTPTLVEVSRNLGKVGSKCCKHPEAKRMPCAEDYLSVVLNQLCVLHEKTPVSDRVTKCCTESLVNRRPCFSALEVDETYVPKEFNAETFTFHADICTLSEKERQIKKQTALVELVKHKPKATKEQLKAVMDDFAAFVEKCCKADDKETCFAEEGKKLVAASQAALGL
# [3] = tested on: TNP-specific IgM and IgG responses; assay: TNP-KLH immunization model, serum anti-TNP antibodies; assay type: in vivo, mouse
# Method: Male CD1 mice (30–40 g, 8–9 weeks of age) were randomized into study treatment groups, housed individually and allowed to acclimatize under standard laboratory conditions for a minimum of 5 days prior to commencement of the study. Mice received food and water ad libitum. The experiment was performed in a certified dedicated in vivo experimental laboratory at the GlaxoSmithKline Medicines Research Centre, Stevenage, United Kingdom. The four treatment groups were (1) unimmunized and untreated (naive group) (n = 4); (2) intraperitoneal vehicle (n = 13), (3) GSK137 15 mg/kg (n = 14), and (4) GSK137 30 mg/kg (n = 14). Groups (2) to (4) were given intraperitoneal immunization with TNP–KLH (100 μg) on day 0, vehicle was 1% methylcellulose in water + 0.1% sodium lauryl sulphate, and compound or vehicle was given to groups (2) to (4) by oral gavage three times per day from day −1 to day +12. Blood samples were collected by tail vein for measurement of compound, IgM and IgG levels on days 0, 5, 8, and 12 ahead of immunization/first daily dose. On day 8, blood samples were also taken (n = 7) at 0.5, 1.5, 3, 5, or 7 h after first daily dose. On day 12, spleens were collected, weighed, and placed into Dulbecco's modified Eagle's medium on wet ice for analysis by flow cytometry.
# For antibody measurements, TNP–bovine serum albumin–coated plates were blocked, and then, standards or serum samples diluted 1:1000 or 1:2500 were incubated for 2 h at room temperature before biotinylated antimouse IgG or IgM antibodies were allowed to bind for 1 h at room temperature and detected using streptavidin-bound horseradish peroxidase incubated for 30 min, followed by the addition of 3,3′,5,5′-tetramethylbenzidine substrate for 15 min. The reaction was stopped, and the plates read at 450 nm by spectrophotometry. Plates were washed between each incubation step to remove unbound reagent. Data analysis was carried out in GraphPad Prism 5 (GraphPad Software, Inc) software using a four-parameter logistic fit of the standards response.
SMILES,IC50 (BCL6 BTB-POZ domain) [nM],"chromatographic logD ([1]; determined chromatographically, read-out: Chrom LogD)",PFI (property forecast index) ([1]; log D modified for the number of aromatic rings),fraction of B220+ cells expressing clPARP within splenic B-cell follicles vs control (splenic germinal centers; 15 mg/kg),"number of GCs per follicle (mean ± SD) (splenic germinal centers; 15 mg/kg orally TID, C57BL/6J mice, vehicle 0.5 ± 0.11, p = 0.04)","numbers of B220+Ki-67+ cells within each GC vs vehicle (splenic germinal centers; 15 mg/kg, unpaired t test, p = 0.01)",HSA binding [2] [%],"reduction of mean TNP-specific IgM levels vs vehicle ([3]; 15 mg/kg orally TID, day 12, p = 0.0027) [%]","reduction of mean TNP-specific IgG levels vs vehicle ([3]; 15 mg/kg orally TID, day 12, p = 0.0056) [%]","reduction of mean TNP-specific IgM levels vs vehicle ([3]; 30 mg/kg orally TID, day 12, p < 0.0001) [%]","reduction of mean TNP-specific IgG levels vs vehicle ([3]; 30 mg/kg orally TID, day 12, p = 0.0023) [%]","inhibition of TNP-specific IgM level ([3]; 15 and 30 mg/kg, day 5 or day 8)","inhibition of serum TNP-specific IgG levels ([3]; 15 and 30 mg/kg, day 8)"
"CNC(=O)COc1cc2cc(Nc3nc(N4C[C@H](C)C[C@H](C)C4)ncc3Cl)ccc2n(C)c1=O [BI3802, reference compound]",< 3,–,–,–,–,–,–,–,–,–,–,–,–
"Cc1ncccc1[C@H]1C[C@@H](c2cccc3nc(N)ccc23)Nc2c(F)cnn21 [GSK137, 5-((5S,7R)-3-Fluoro-7-(2-methylpyridin-3-yl)-4,5,6,7-tetrahydropyrazolo[1,5-a]pyrimidin-5-yl)quinolin-2-amine]",–,2.3,6.3,no significant difference,0.27 ± 0.06,significant reductions,91,43,58,58,66,did not inhibit,did not inhibit
